The source of these data is US9102614B2, “Naphth-2-ylacetic acid derivatives to treat AIDS” (Gilead Sciences, Inc., priority 2010, dated 2015).

Where two headings read alike, the source gives them in different places.

This experiment concerns HIV-IIIb. As to the kind of experiment: Test A: Antiviral Assays in MT4 Cells. The experiment is classed as cell-based. The following applies: MT-4 cells infected with HIV-IIIb (0.004 m.o.i.), 5 days of incubation, CellTiter-Glo chemiluminescence readout, read-out: EC50. Summed up: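 MT-4 cells pre-infected with HIV-IIIb (0.004 m.o.i.) at 37 °C, then plated with 3-fold serially diluted compound (10 concentrations, quadruplicate, RPMI 1640/10% FBS). After 5 days at 37 °C, cell viability read by CellTiter-Glo chemiluminescence; mock-infected cells run in parallel.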
In general terms: In ATP-based viability assays light output follows the ATP content of the culture.

[1] abbreviates: Human immunodeficiency virus 1, IIIB, MT4, 120 h.

With `Cc1cc2cc(-c3ccc(Cl)cc3)ccc2c(-c2ccc(Cl)cc2)c1C(OC(C)(C)C)C(=O)O` (centres unmarked) [Compound 66, 2-(1,6-Bis(4-chlorophenyl)-3-methylnaphthalen-2-yl)-2-tert-butoxyacetic acid], the EC50 under setting [1] was determined as 290 nM. For the molecule `Cc1cc2cc(Cl)ccc2c(-c2ccc3c4c(ccnc24)CCO3)c1[C@H](OC(C)(C)C)C(=O)O` [Compound 68A, (S)-2-tert-Butoxy-2-((R)-6-chloro-1-(2,3-dihydropyrano[4,3,2-de]quinolin-7-yl)-3-methylnaphthalen-2-yl)acetic acid], the EC50 was determined as 14 nM. Same read-out and setting: the value for `Cc1ccc2c(-c3ccc4c5c(ccnc35)CCO4)c([C@H](OC(C)(C)C)C(=O)O)c(C)cc2c1` [Compound 68B, (S)-2-tert-Butoxy-2-((R)-1-(2,3-dihydropyrano[4,3,2-de]quinolin-7-yl)-3,6-dimethylnaphthalen-2-yl)acetic acid] was 5 nM.

Take `Cc1cc2ccc(C#CC(C)(C)O)cc2c(-c2ccc(Cl)cc2)c1C(OC(C)(C)C)C(=O)O` (centres unmarked) [Compound 69, 2-tert-butoxy-2-(1-(4-chlorophenyl)-7-(3-hydroxy-3-methylbut-1-ynyl)-3-methylnaphthalen-2-yl)acetic acid]: the EC50 under setting [1] came to 380 nM. Turning to `Cc1cc2ccc(-c3ccc(Cl)cc3)cc2c(-c2ccc(Cl)cc2)c1C(OC(C)(C)C)C(=O)O` (centres unmarked) [Compound 70, 2-(1,7-Bis(4-chlorophenyl)-3-methylnaphthalen-2-yl)-2-tert-butoxyacetic acid], under setting [1], the EC50 worked out at 8800 nM. `Cc1cc2ccc(Br)cc2c(-c2ccc(Cl)cc2)c1C(OC(C)(C)C)C(=O)O` (centres unmarked) [Compound 71, 2-(7-Bromo-1-(4-chlorophenyl)-3-methylnaphthalen-2-yl)-2-tert-butoxyacetic acid]: under setting [1], the half-maximal effective concentration (EC50) was 35000 nM. For the molecule `Cc1cc2ccc(C#CC(C)(C)C)cc2c(-c2ccc(Cl)cc2)c1C(OC(C)(C)C)C(=O)O` (centres unmarked) [Compound 72, 2-tert-Butoxy-2-(1-(4-chlorophenyl)-7-(3,3-dimethylbut-1-ynyl)-3-methylnaphthalen-2-yl)acetic acid], the EC50 under setting [1] was determined as 2000 nM. The same measure, in the same setting: the result for `Cc1cc2ccc(C#CC3(O)CCCC3)cc2c(-c2ccc(Cl)cc2)c1C(OC(C)(C)C)C(=O)O` (centres unmarked) [Compound 73, 2-tert-butoxy-2-(1-(4-chlorophenyl)-7-((1-hydroxycyclopentyl)ethynyl)-3-methylnaphthalen-2-yl)acetic acid] reads 130 nM; that for `Cc1cc2ccc(C#CC3CCCC3)cc2c(-c2ccc(Cl)cc2)c1C(OC(C)(C)C)C(=O)O` (centres unmarked) [Compound 74, 2-tert-Butoxy-2-(1-(4-chlorophenyl)-7-(cyclopentylethynyl)-3-methylnaphthalen-2-yl)acetic acid], 1200 nM; that for `Cc1cc2ccc(C#CC3CC3)cc2c(-c2ccc(Cl)cc2)c1C(OC(C)(C)C)C(=O)O` (centres unmarked) [Compound 75, 2-tert-Butoxy-2-(1-(4-chlorophenyl)-7-(cyclopropylethynyl)-3-methylnaphthalen-2-yl)acetic acid], 980 nM. For the molecule `C=Cc1ccc2cc(C)c(C(OC(C)(C)C)C(=O)O)c(-c3ccc(Cl)cc3)c2c1` (centres unmarked) [Compound 76, 2-tert-Butoxy-2-(1-(4-chlorophenyl)-3-methyl-7-vinylnaphthalen-2-yl)acetic acid], under setting [1], the EC50 is 930 nM. On the same count and under the same terms, the value for `CC(C)=Cc1ccc2cc(C)c(C(OC(C)(C)C)C(=O)O)c(-c3ccc(Cl)cc3)c2c1` (centres unmarked) [Compound 77, 2-tert-butoxy-2-(1-(4-chlorophenyl)-3-methyl-7-(2-methylprop-1-enyl)naphthalen-2-yl)acetic acid] was 8900 nM; that for `Cc1ccc2cc(C)c(C(OC(C)(C)C)C(=O)O)c(-c3ccc(Cl)cc3)c2c1` (centres unmarked) [Compound 78, 2-tert-Butoxy-2-(1-(4-chlorophenyl)-3,7-dimethylnaphthalen-2-yl)acetic acid] was 300 nM. On the same count and under the same terms, the value for `Cc1cc2ccc(C#CC3(O)CCN(C)CC3)cc2c(-c2ccc(Cl)cc2)c1C(OC(C)(C)C)C(=O)O` (centres unmarked) [Compound 79, 2-tert-Butoxy-2-(1-(4-chlorophenyl)-7-((4-hydroxy-1-methylpiperidin-4-yl)ethynyl)-3-methylnaphthalen-2-yl)acetic acid] was 89 nM; that for `Cc1cc2ccc(C#CC3(O)CCOCC3)cc2c(-c2ccc(Cl)cc2)c1C(OC(C)(C)C)C(=O)O` (centres unmarked) [Compound 80, 2-tert-Butoxy-2-(1-(4-chlorophenyl)-7-((4-hydroxytetrahydro-2H-pyran-4-yl)ethynyl)-3-methylnaphthalen-2-yl)acetic acid] was 51 nM. Still for that read-out and setting: the value for `Cc1cc2ccc(C#Cc3cncn3C)cc2c(-c2ccc(Cl)cc2)c1C(OC(C)(C)C)C(=O)O` (centres unmarked) [Compound 81, 2-tert-Butoxy-2-(1-(4-chlorophenyl)-3-methyl-7-((1-methyl-1H-imidazol-5-yl)ethynyl)naphthalen-2-yl)acetic acid] was 150 nM; that for `CCC(O)(C#Cc1ccc2cc(C)c(C(OC(C)(C)C)C(=O)O)c(-c3ccc(Cl)cc3)c2c1)CC` (centres unmarked) [Compound 82, 2-tert-Butoxy-2-(1-(4-chlorophenyl)-7-(3-ethyl-3-hydroxypent-1-ynyl)-3-methylnaphthalen-2-yl)acetic acid] was 58 nM; that for `Cc1cc2ccc(C#CC3(O)CCCCC3)cc2c(-c2ccc(Cl)cc2)c1C(OC(C)(C)C)C(=O)O` (centres unmarked) [Compound 83, 2-tert-Butoxy-2-(1-(4-chlorophenyl)-7-((1-hydroxycyclohexyl)ethynyl)-3-methylnaphthalen-2-yl)acetic acid] was 78 nM. As for `Cc1cc2ccc(C#CC3(N)CCCCC3)cc2c(-c2ccc(Cl)cc2)c1C(OC(C)(C)C)C(=O)O` (centres unmarked) [Compound 84, 2-(7-((1-Aminocyclohexyl)ethynyl)-1-(4-chlorophenyl)-3-methylnaphthalen-2-yl)-2-tert-butoxyacetic acid], under setting [1], the EC50 is 14 nM. Still for that read-out and setting: the value for `Cc1cc2ccc(C#CC(C)(C)N)cc2c(-c2ccc(Cl)cc2)c1C(OC(C)(C)C)C(=O)O` (centres unmarked) [Compound 85, 2-(7-(3-Amino-3-methylbut-1-ynyl)-1-(4-chlorophenyl)-3-methylnaphthalen-2-yl)-2-tert-butoxyacetic acid] was 18 nM. The same measure, in the same setting: the result for `Cc1cc2ccc(C#CC(C)(C)N)cc2c(-c2ccc3c4c(ccnc24)CCO3)c1C(OC(C)(C)C)C(=O)O` [Compound 86, (S)-2-((R)-7-(3-Amino-3-methylbut-1-ynyl)-1-(2,3-dihydropyrano[4,3,2-de]quinolin-7-yl)-3-methylnaphthalen-2-yl)-2-tert-butoxyacetic acid] reads 980 nM; that for `Cc1cc2ccc(C#CC(C)(C)N)cc2c(-c2ccc3c(c2)CCCO3)c1C(OC(C)(C)C)C(=O)O` (centres unmarked) [Compound 87, 2-(7-(3-Amino-3-methylbut-1-ynyl)-1-(chroman-6-yl)-3-methylnaphthalen-2-yl)-2-tert-butoxyacetic acid], 72 nM; that for `Cc1cc2ccc(C#CC(C)(O)c3ccccc3)cc2c(-c2ccc(Cl)cc2)c1C(OC(C)(C)C)C(=O)O` (centres unmarked) [Compound 88, 2-tert-Butoxy-2-(1-(4-chlorophenyl)-7-(3-hydroxy-3-phenylbut-1-ynyl)-3-methylnaphthalen-2-yl)acetic acid], 24 nM. The same measure, in the same setting: the result for `Cc1cc2ccc(CCC(C)(C)O)cc2c(-c2ccc(Cl)cc2)c1C(OC(C)(C)C)C(=O)O` (centres unmarked) [Compound 89, 2-tert-Butoxy-2-(1-(4-chlorophenyl)-7-(3-hydroxy-3-methylbutyl)-3-methylnaphthalen-2-yl)acetic acid] reads 280 nM. As to `Cc1cc2ccc(CCC3CCCC3)cc2c(-c2ccc(Cl)cc2)c1C(OC(C)(C)C)C(=O)O` (centres unmarked) [Compound 90, 2-tert-Butoxy-2-(1-(4-chlorophenyl)-7-(2-cyclopentylethyl)-3-methylnaphthalen-2-yl)acetic acid], the EC50 under setting [1] stood at 31000 nM. On the same count and under the same terms, the result for `Cc1cc2ccc(CCC3(O)CCCC3)cc2c(-c2ccc(Cl)cc2)c1C(OC(C)(C)C)C(=O)O` (centres unmarked) [Compound 91, 2-tert-butoxy-2-(1-(4-chlorophenyl)-7-(2-(1-hydroxycyclopentyl)ethyl)-3-methylnaphthalen-2-yl)acetic acid] reads 250 nM; that for `Cc1cc2ccc(CCC3CC3)cc2c(-c2ccc(Cl)cc2)c1C(OC(C)(C)C)C(=O)O` (centres unmarked) [Compound 92, 2-tert-Butoxy-2-(1-(4-chlorophenyl)-7-(2-cyclopropylethyl)-3-methylnaphthalen-2-yl)acetic acid], 7100 nM; that for `CCc1ccc2cc(C)c(C(OC(C)(C)C)C(=O)O)c(-c3ccc(Cl)cc3)c2c1` (centres unmarked) [Compound 93, 2-tert-Butoxy-2-(1-(4-chlorophenyl)-7-ethyl-3-methylnaphthalen-2-yl)acetic acid], 86 nM. Consider `Cc1cc2ccc(CC(C)C)cc2c(-c2ccc(Cl)cc2)c1C(OC(C)(C)C)C(=O)O` (centres unmarked) [Compound 94, 2-tert-Butoxy-2-(1-(4-chlorophenyl)-7-isobutyl-3-methylnaphthalen-2-yl)acetic acid], for which, under setting [1], the EC50 turned out to be 12000 nM. The same measure, in the same setting: the result for `Cc1cc2ccc(C#CC(C)(C)N(C)C)cc2c(-c2ccc(Cl)cc2)c1C(OC(C)(C)C)C(=O)O` (centres unmarked) [Compound 95, 2-tert-Butoxy-2-(1-(4-chlorophenyl)-7-(3-(dimethylamino)-3-methylbut-1-ynyl)-3-methylnaphthalen-2-yl)acetic acid] reads 380 nM.

Take `CC(=O)NC(C)(C)C#Cc1ccc2cc(C)c(C(OC(C)(C)C)C(=O)O)c(-c3ccc(Cl)cc3)c2c1` (centres unmarked) [Compound 96, 2-(7-(3-Acetamido-3-methylbut-1-ynyl)-1-(4-chlorophenyl)-3-methylnaphthalen-2-yl)-2-tert-butoxyacetic acid]: the EC50 under setting [1] came to 88 nM. Still for that read-out and setting: the value for `COC(=O)NC(C)(C)C#Cc1ccc2cc(C)c(C(OC(C)(C)C)C(=O)O)c(-c3ccc(Cl)cc3)c2c1` (centres unmarked) [Compound 97, 2-tert-Butoxy-2-(1-(4-chlorophenyl)-7-(3-(methoxycarbonylamino)-3-methylbut-1-ynyl)-3-methylnaphthalen-2-yl)acetic acid] was 300 nM.

Broadly, the EC50 is the midpoint of the concentration-response curve.
